PMC5569483, “Screening and evolution of a novel protist xylose isomerase from the termite Reticulitermes speratus for efficient xylose fermentation in Saccharomyces cerevisiae” (Biotechnology for Biofuels, 2017)

System: T1, RsXI-C1
T1 construct: full-length ORF, codon-optimized gene, expressed in S. cerevisiae W600W (strain WR311), crude cell extract
Test: coupled sorbitol dehydrogenase assay, NADH oxidation at […] nm, Lineweaver-Burk
Type: biochemical, uncultured symbiotic protist of Reticulitermes speratus
Conditions: crude cell extract; 100 mM Tris-HCl pH 7.5, 10 mM MgSO4, 0.15 mM NADH, 30 °C, 5–250 mM D-xylose

Km: 10.5 ± 1.1 mM
Structure (SMILES): OC1OC[C@@H](O)[C@H](O)[C@H]1O (stereo partly shown) [xylose]
